{"source": "patent US20230075856A1", "about": "“CYCLIC SULFAMIDE COMPOUNDS FOR TREATMENT OF HBV” (Assembly Biosciences, Inc., priority 2018, published 2023)", "data": [{"system": "HBV viral load production from HepAD38 cells", "test": "Viral production from HepAD38 cells: viral load in supernatant by qPCR of the HBV core sequence", "assay_type": "cell-based", "conditions": "5 days incubation, qPCR of supernatant HBV DNA vs DMSO control, read-out: viral load lowering EC50 (Activity)", "method_in_brief": "(§1)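 Viral load was measured by qPCR of the HBV core region in supernatant, quantified against DNA standards and compared with DMSO wells. Cells (50,000/well, tetracycline withdrawn, 2% FBS) received compound from 10 μM final for 5 days; EC50 from four-parameter nonlinear regression.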", "units": {"EC50": "nM"}, "values": [{"smiles": "CN1C(C(=O)Nc2ccc(F)c(Cl)c2)CC(C(=O)NCc2nc3ccccc3s2)NS1(=O)=O", "note": "(single isomer, unassigned) [Compound 689-ISOMER-B, N5-(1,3-benzothiazol-2-ylmethyl)-N3-(3-chloro-4-fluoro-phenyl)-2-methyl-1,1-dioxo-1,2,6-thiadiazinane-3,5-dicarboxamide]", "EC50": "< 50"}, {"smiles": "CN1C(C(=O)Nc2ccc(F)c(Cl)c2)CC(C(=O)NCC2CCCCC2)NS1(=O)=O", "note": "(single isomer, unassigned) [1160-ISOMER-B, N3-(3-chloro-4-fluoro-phenyl)-N5-(cyclohexylmethyl)-2-methyl-1,1-dioxo-1,2,6-thiadiazinane-3,5-dicarboxamide]", "EC50": "100 to 10000"}, {"smiles": "CN1C(C(=O)Nc2ccc(F)c(Cl)c2)CC(C(=O)NCc2cnc(-c3ccc(C#N)cc3F)s2)NS1(=O)=O", "note": "(single isomer, unassigned) [Compound 920-ISOMER-B, N3-(3-chloro-4-fluoro-phenyl)-N5-[[2-(4-cyano-2-fluoro-phenyl)thiazol-5-yl]methyl]-2-methyl-1,1-dioxo-1,2,6-thiadiazinane-3,5-dicarboxamide]", "EC50": "< 50"}, {"smiles": "COc1ccc(CNC(=O)C2CC(C(=O)Nc3ccc(F)c(Cl)c3)N(C)S(=O)(=O)N2)cc1", "note": "(single isomer, unassigned) [Compound 717-ISOMER-B, N3-(3-chloro-4-fluoro-phenyl)-N5-[(4-methoxyphenyl)methyl]-2-methyl-1,1-dioxo-1,2,6-thiadiazinane-3,5-dicarboxamide]", "EC50": "50 to 100"}, {"smiles": "CN1C(C(=O)Nc2ccc(F)c(Cl)c2)CC(C(=O)NCc2nc(C(F)(F)F)cs2)NS1(=O)=O", "note": "(single isomer, unassigned) [1202-ISOMER-B, N3-(3-chloro-4-fluoro-phenyl)-2-methyl-1,1-dioxo-N5-[[4-(trifluoromethyl)thiazol-2-yl]methyl]-1,2,6-thiadiazinane-3,5-dicarboxamide]", "EC50": "< 50"}, {"smiles": "Cc1cn(-c2ccccc2F)nc1CNC(=O)C1CC(C(=O)Nc2ccc(F)c(Cl)c2)N(C)S(=O)(=O)N1", "note": "(single isomer, unassigned) [1142-ISOMER-B, N3-(3-chloro-4-fluoro-phenyl)-N5-[[1-(2-fluorophenyl)-4-methyl-pyrazol-3-yl]methyl]-2-methyl-1,1-dioxo-1,2,6-thiadiazinane-3,5-dicarboxamide]", "EC50": "100 to 10000"}, {"smiles": "CN1C(C(=O)Nc2ccc(F)c(Cl)c2)CC(C(=O)NC2CCN(c3ccnc(Cl)c3)CC2)NS1(=O)=O", "note": "(single isomer, unassigned) [1012-ISOMER-B, N3-(3-Chloro-4-fluoro-phenyl)-N5-[1-(2-chloro-4-pyridyl)-4-piperidyl]-2-methyl-1,1-dioxo-1,2,6-thiadiazinane-3,5-dicarboxamide]", "EC50": "50 to 100"}]}, {"system": "HBV viral load production from HepAD38 cells", "test": "Viral production from HepAD38 cells: viral load in supernatant by qPCR of the HBV core sequence", "assay_type": "cell-based", "conditions": "Hepatitis B virus, HePAD38, 120 h, 5 days incubation, qPCR of supernatant HBV DNA vs DMSO control, read-out: viral load lowering EC50 (Activity)", "method_in_brief": "as §1", "units": {"EC50": "nM"}, "values": [{"smiles": "CN1C(C(=O)Nc2ccc(F)c(Cl)c2)CC(C(=O)NC2CCN(c3ccnc(Cl)c3)CC2)NS1(=O)=O", "note": "(single isomer, unassigned) [1012-ISOMER-A, N3-(3-Chloro-4-fluoro-phenyl)-N5-[1-(2-chloro-4-pyridyl)-4-piperidyl]-2-methyl-1,1-dioxo-1,2,6-thiadiazinane-3,5-dicarboxamide]", "EC50": "< 50"}, {"smiles": "CN1C(C(=O)Nc2ccc(F)c(Cl)c2)CC(C(=O)NCc2nn(-c3ccccc3F)c3ccccc23)NS1(=O)=O", "note": "(single isomer, unassigned) [1086-ISOMER-A, N3-(3-chloro-4-fluoro-phenyl)-N5-[[1-(2-fluorophenyl)indazol-3-yl]methyl]-2-methyl-1,1-dioxo-1,2,6-thiadiazinane-3,5-dicarboxamide]", "EC50": "< 50"}, {"smiles": "Cc1nc(-c2ccccc2F)sc1[C@H](NC(=O)C1CC(C(=O)Nc2ccc(F)c(Cl)c2)N(C)S(=O)(=O)N1)c1ccccc1", "note": "(single isomer, unassigned) [1101-ISOMER-C]", "EC50": "100 to 10000"}, {"smiles": "CN1C(C(=O)Nc2ccc(F)c(C#N)c2)CC(C(=O)NC2CCN(C(=O)OC(C)(C)C)CC2)NS1(=O)=O", "note": "(stereo not shown) [Compound 868]", "EC50": "< 50"}, {"smiles": "CN1C(C(=O)Nc2ccc(F)c(Cl)c2)CC(C(=O)NC2CCN(c3ccnc(Br)c3)CC2)NS1(=O)=O", "note": "(single isomer, unassigned) [1036-ISOMER-A, N5-[1-(2-bromo-4-pyridyl)-4-piperidyl]-N3-(3-chloro-4-fluoro-phenyl)-2-methyl-1,1-dioxo-1,2,6-thiadiazinane-3,5-dicarboxamide]", "EC50": "< 50"}, {"smiles": "CN1C(C(=O)Nc2ccc(F)c(Cl)c2)CC(C(=O)NCc2cn(-c3ccccc3)cn2)NS1(=O)=O", "note": "(stereo not shown) [Compound 1145]", "EC50": "< 50"}, {"smiles": "CN1CCC(Oc2ccc(-c3ncc(CNC(=O)C4CC(C(=O)Nc5ccc(F)c(Cl)c5)N(C)S(=O)(=O)N4)s3)cc2)CC1", "note": "(single isomer, unassigned) [Compound 979-ISOMER-A, N3-(3-chloro-4-fluoro-phenyl)-2-methyl-N5-[[2-[4-[(1-methyl-4-piperidyl)oxy]phenyl]thiazol-5-yl]methyl]-1,1-dioxo-1,2,6-thiadiazinane-3,5-dicarboxamide]", "EC50": "100 to 10000"}, {"smiles": "COc1ccc(CNC(=O)C2CC(C(=O)Nc3ccc(F)c(Cl)c3)N(C)S(=O)(=O)N2)cc1", "note": "(stereo not shown) [Compound 717, N3-(3-chloro-4-fluoro-phenyl)-N5-[(4-methoxyphenyl)methyl]-2-methyl-1,1-dioxo-1,2,6-thiadiazinane-3,5-dicarboxamide]", "EC50": "< 50"}, {"smiles": "CN1C(C(=O)Nc2ccc(F)c(Cl)c2)CC(C(=O)NC2CCN(S(C)(=O)=O)CC2)NS1(=O)=O", "note": "(stereo not shown) [Compound 710]", "EC50": "100 to 10000"}, {"smiles": "Cc1c(CNC(=O)C2CC(C(=O)Nc3ccc(F)c(Cl)c3)N(C)S(=O)(=O)N2)cnn1C", "note": "(single isomer, unassigned) [Compound 740-ISOMER-A, N3-(3-chloro-4-fluoro-phenyl)-N5-[(1,5-dimethylpyrazol-4-yl)methyl]-2-methyl-1,1-dioxo-1,2,6-thiadiazinane-3,5-dicarboxamide]", "EC50": "< 50"}, {"smiles": "COc1cccc(CNC(=O)C2CC(C(=O)Nc3ccc(F)c(Cl)c3)N(C)S(=O)(=O)N2)c1", "note": "(stereo not shown) [Compound 721]", "EC50": "< 50"}, {"smiles": "CN1C(C(=O)Nc2ccc(F)c(Cl)c2)CC(C(=O)NCc2nc(C(F)(F)F)cs2)NS1(=O)=O", "note": "(single isomer, unassigned) [1202-ISOMER-A, N3-(3-chloro-4-fluoro-phenyl)-2-methyl-1,1-dioxo-N5-[[4-(trifluoromethyl)thiazol-2-yl]methyl]-1,2,6-thiadiazinane-3,5-dicarboxamide]", "EC50": "100 to 10000"}, {"smiles": "Cc1nc(-c2ccccc2Cl)sc1[C@@H](NC(=O)C1CC(C(=O)Nc2ccc(F)c(Cl)c2)N(C)S(=O)(=O)N1)c1ccccc1", "note": "(single isomer, unassigned) [1100-ISOMER-D]", "EC50": "100 to 10000"}, {"smiles": "CN1C(C(=O)Nc2ccc(F)c(C#N)c2)CC(C(=O)NCc2ccccc2)NS1(=O)=O", "note": "(stereo not shown) [Compound 833]", "EC50": "100 to 10000"}, {"smiles": "Cc1nc(-c2ccccc2Cl)sc1CNC(=O)C1CC(C(=O)Nc2ccc(F)c(Cl)c2)N(C)S(=O)(=O)N1", "note": "(single isomer, unassigned) [1015-ISOMER-A, N3-(3-Chloro-4-fluoro-phenyl)-N5-[[2-(2-chlorophenyl)-4-methyl-thiazol-5-yl]methyl]-2-methyl-1,1-dioxo-1,2,6-thiadiazinane-3,5-dicarboxamide]", "EC50": "< 50"}, {"smiles": "COc1ccc(-c2ncc(CNC(=O)C3CC(C(=O)Nc4ccc(F)c(Cl)c4)N(C)S(=O)(=O)N3)s2)cc1", "note": "(stereo not shown) [Compound 932]", "EC50": "< 50"}, {"smiles": "CN1C(C(=O)Nc2ccc(F)c(Cl)c2)CC(C(=O)NCc2cnc(-c3ccccc3Cl)s2)NS1(=O)=O", "note": "(single isomer, unassigned) [Compound 912-ISOMER-A, N3-(3-chloro-4-fluoro-phenyl)-N5-[[2-(2-chlorophenyl)thiazol-5-yl]methyl]-2-methyl-1,1-dioxo-1,2,6-thiadiazinane-3,5-dicarboxamide]", "EC50": "100 to 10000"}, {"smiles": "Cc1nc(Cl)sc1C(NC(=O)C1CC(C(=O)Nc2ccc(F)c(Cl)c2)N(C)S(=O)(=O)N1)c1ccccc1", "note": "(stereo not shown) [Compound 1098]", "EC50": "< 50"}, {"smiles": "CCn1nccc1CNC(=O)C1CC(C(=O)Nc2ccc(F)c(Cl)c2)N(C)S(=O)(=O)N1", "note": "(stereo not shown) [Compound 744]", "EC50": "50 to 100"}, {"smiles": "Cc1cn(-c2ccc(F)cc2)nc1CNC(=O)C1CC(C(=O)Nc2ccc(F)c(Cl)c2)N(C)S(=O)(=O)N1", "note": "(stereo not shown) [Compound 1141]", "EC50": "< 50"}, {"smiles": "Cc1cccc(CNC(=O)C2CC(C(=O)Nc3ccc(F)c(C#N)c3)N(C)S(=O)(=O)N2)n1", "note": "(stereo not shown) [Compound 831]", "EC50": "100 to 10000"}, {"smiles": "CN1C(C(=O)Nc2ccc(F)c(Cl)c2)CC(C(=O)NCc2cccc(Cl)c2)NS1(=O)=O", "note": "(single isomer, unassigned) [Compound 730-ISOMER-A, N3-(3-chloro-4-fluoro-phenyl)-N5-[(3-chlorophenyl)methyl]-2-methyl-1,1-dioxo-1,2,6-thiadiazinane-3,5-dicarboxamide]", "EC50": "< 50"}, {"smiles": "CN1C(C(=O)Nc2ccc(F)c(Cl)c2)CC(C(=O)NCc2ccccc2C(F)(F)F)NS1(=O)=O", "note": "(stereo not shown) [Compound 818]", "EC50": "< 50"}, {"smiles": "CN1C(C(=O)Nc2ccc(F)c(Cl)c2)CC(C(=O)NC2CCCc3nc(-c4ccccc4Cl)sc32)NS1(=O)=O", "note": "(stereo not shown) [Compound 1018]", "EC50": "< 50"}, {"smiles": "CN1C(C(=O)Nc2ccc(F)c(Cl)c2)CC(C(=O)NCc2cnc(-n3ccnn3)s2)NS1(=O)=O", "note": "(stereo not shown) [Compound 1158]", "EC50": "< 50"}, {"smiles": "CN1C(C(=O)Nc2ccc(F)c(Cl)c2)CC(C(=O)NCc2cnc(-n3cccn3)s2)NS1(=O)=O", "note": "(stereo not shown) [Compound 1157]", "EC50": "50 to 100"}, {"smiles": "Cc1cnc(CNC(=O)C2CC(C(=O)Nc3ccc(F)c(Cl)c3)N(C)S(=O)(=O)N2)s1", "note": "(stereo not shown) [Compound 687]", "EC50": "< 50"}, {"smiles": "CN1C(C(=O)Nc2ccc(F)c(Cl)c2)CC(C(=O)NCc2ccccn2)NS1(=O)=O", "note": "(stereo not shown) [Compound 739]", "EC50": "50 to 100"}, {"smiles": "Cc1cn(-c2ccccc2F)nc1CNC(=O)C1CC(C(=O)Nc2ccc(F)c(Cl)c2)N(C)S(=O)(=O)N1", "note": "(stereo not shown) [Compound 1142]", "EC50": "< 50"}, {"smiles": "CN1C(C(=O)Nc2ccc(F)c(Cl)c2)CC(C(=O)NC(c2ccccc2)c2ccccc2)NS1(=O)=O", "note": "(single isomer, unassigned) [1014-ISOMER-A, N5-benzhydryl-N3-(3-Chloro-4-fluoro-phenyl)-2-methyl-1,1-dioxo-1,2,6-thiadiazinane-3,5-dicarboxamide]", "EC50": "< 50"}]}]}
